In brackets after ≈: the same amount, converted by molar mass.
How the values were obtained:
[1] = test system: ZR-75-30 (human breast cancer cells); assay: MTT assay, ZR-75-30; assay type: cell-based; conditions: 72 h
Procedure: (§1) 1. Sample preparation: After dissolved with DMSO (Merck), PBS (−) was added to make 1000 μg/ml solution or a uniform suspension, and then diluted with PBS (−) containing the DMSO. Doxorubicin (DOX) was used as the positive control drug.
(§2) 2. Cell Line • 1) A549 (human lung cancer cells); 2) HCT116 (human colon cancer cells); 3) HepG2 (human hepatoma cells); 4) ZR-75-30 (human breast cancer cells); 5) U87MG (human brain star glioblastoma)
(§3) DMEM+5-10% FBS+double resistant
(§4) MTT assay. 100 μl cell suspension was added at a concentration of 4˜5×10^4 cells/ml to each well of a 96-well plate, and was set at 37° C., 5% CO2 in the incubator. After 24 h, the sample solution was added, 10 μl/hole, double wells were set, 37° C., acting for 72 h at 5% CO2. […] of 5 mg/ml was added to each well, the dissolving liquid was added after acted for 4 h, 100 μl/hole, kept in the incubator, and read 570 nm OD with MK-2 automatic microplate reader after dissolution.

[2] = test system: HepG2 (human hepatoma cells); assay: MTT assay, HepG2; assay type: cell-based; conditions: 72 h
Procedure: as §1, §2, §3, §4

[3] = test system: U87MG (human brain star glioblastoma); assay: MTT assay, U87MG; assay type: cell-based; conditions: U-87 MG, 72 h
Procedure: as §1, §2, §3, §4

[4] = test system: HCT116 (human colon cancer cells); assay: MTT assay, HCT116; assay type: cell-based; conditions: HCT-116, 72 h
[5] = test system: A549 (human lung cancer cells); assay: MTT assay, A549; assay type: cell-based; conditions: 72 h
Procedure: as §1, §2, §3, §4

PI3Kα = PI3Kα (Homo sapiens, UniProt P42336); assay: Kinase-Glo Luminescent Kinase Assay, PI3Kα; assay type: biochemical
Chain of PI3Kα (P42336 whole entry, species assumed): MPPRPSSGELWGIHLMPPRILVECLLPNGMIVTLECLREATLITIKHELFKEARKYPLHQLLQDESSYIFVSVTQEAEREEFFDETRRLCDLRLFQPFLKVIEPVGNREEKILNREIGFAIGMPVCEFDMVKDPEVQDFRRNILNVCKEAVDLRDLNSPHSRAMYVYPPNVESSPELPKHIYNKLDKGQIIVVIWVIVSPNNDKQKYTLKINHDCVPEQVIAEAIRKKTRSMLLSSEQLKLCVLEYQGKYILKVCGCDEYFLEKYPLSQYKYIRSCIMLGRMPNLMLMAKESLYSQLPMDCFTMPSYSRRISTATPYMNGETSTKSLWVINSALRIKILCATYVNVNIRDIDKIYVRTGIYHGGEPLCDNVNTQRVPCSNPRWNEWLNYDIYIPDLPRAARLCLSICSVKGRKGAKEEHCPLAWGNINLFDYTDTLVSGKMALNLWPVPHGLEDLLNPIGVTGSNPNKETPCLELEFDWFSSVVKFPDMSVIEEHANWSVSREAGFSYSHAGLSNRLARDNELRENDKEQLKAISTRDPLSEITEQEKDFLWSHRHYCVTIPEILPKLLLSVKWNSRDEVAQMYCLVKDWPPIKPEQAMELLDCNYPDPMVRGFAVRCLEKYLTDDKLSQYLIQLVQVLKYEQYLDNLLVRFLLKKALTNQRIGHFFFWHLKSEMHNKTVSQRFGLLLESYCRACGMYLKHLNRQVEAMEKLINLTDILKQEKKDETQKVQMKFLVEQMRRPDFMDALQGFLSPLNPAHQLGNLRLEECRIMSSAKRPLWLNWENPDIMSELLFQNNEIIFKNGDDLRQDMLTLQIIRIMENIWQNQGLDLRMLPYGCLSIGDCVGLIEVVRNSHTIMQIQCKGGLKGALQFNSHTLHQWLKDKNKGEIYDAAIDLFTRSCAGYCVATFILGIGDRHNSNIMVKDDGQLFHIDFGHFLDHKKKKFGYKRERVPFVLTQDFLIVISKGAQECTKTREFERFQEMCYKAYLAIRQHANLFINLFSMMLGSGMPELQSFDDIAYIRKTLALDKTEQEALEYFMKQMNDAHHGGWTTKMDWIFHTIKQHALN
Chain of PI3Kα (P27986 whole entry partner, species assumed): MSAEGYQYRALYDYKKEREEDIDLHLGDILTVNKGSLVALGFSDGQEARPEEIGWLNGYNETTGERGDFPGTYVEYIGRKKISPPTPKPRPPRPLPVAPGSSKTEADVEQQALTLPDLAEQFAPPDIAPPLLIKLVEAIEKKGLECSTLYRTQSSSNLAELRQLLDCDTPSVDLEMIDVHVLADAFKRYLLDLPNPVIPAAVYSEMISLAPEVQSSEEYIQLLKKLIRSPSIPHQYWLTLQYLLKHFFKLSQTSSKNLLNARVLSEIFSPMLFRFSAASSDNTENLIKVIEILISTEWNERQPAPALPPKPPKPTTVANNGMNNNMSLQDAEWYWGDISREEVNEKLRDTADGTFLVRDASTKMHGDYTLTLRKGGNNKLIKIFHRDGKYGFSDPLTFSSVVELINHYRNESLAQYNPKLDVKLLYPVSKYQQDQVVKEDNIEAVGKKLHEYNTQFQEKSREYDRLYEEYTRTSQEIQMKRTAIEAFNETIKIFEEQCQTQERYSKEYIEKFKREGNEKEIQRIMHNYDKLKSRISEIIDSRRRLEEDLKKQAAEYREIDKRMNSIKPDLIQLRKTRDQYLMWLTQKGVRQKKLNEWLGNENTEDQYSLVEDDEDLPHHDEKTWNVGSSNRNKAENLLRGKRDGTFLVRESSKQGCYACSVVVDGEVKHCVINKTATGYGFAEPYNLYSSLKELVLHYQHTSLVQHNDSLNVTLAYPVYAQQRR

Structure (SMILES)	IC50 [1] [µg/mL]	IC50 [2] [µg/mL]	melting point [°C]	IC50 [3] [µg/mL]	IC50 [4] [µg/mL]	IC50 [5] [µg/mL]	IC50 (PI3Kα) [nM]
COc1ncc(-c2ccc3nccc(N4CCCC4)c3c2)cc1NS(=O)(=O)c1ccc(F)cc1F [Compound 2]	6.73 (≈ 13.6 µM)	9.83 (≈ 19.8 µM)	223 to 225	3.32 (≈ 6.69 µM)	1.65 (≈ 3.32 µM)	1.69 (≈ 3.41 µM)	> 100
COc1ncc(-c2ccc3nccc(N4CCOCC4)c3c2)cc1NS(=O)(=O)c1ccc(F)cc1F [Compound 3, N-(2-methoxy-5-(4-morpholinequinolin-6-yl)pyridin-3-yl)-2,4-difluorobenzenesulfonamide]	2.16 (≈ 4.21 µM)	11.5 (≈ 22.4 µM)	219 to 221	64.7 (≈ 126 µM)	2.27 (≈ 4.43 µM)	1.23 (≈ 2.4 µM)	1.4
COc1ncc(-c2ccc3nccc(Cl)c3c2)cc1NS(=O)(=O)c1ccc(F)cc1F [Compound 4, N-(5-(4-chlorinequinolin-6-yl)-2-methoxypyridine-3-yl)-2,4-difluorobenzenesulfonamide]	2.59 (≈ 5.61 µM)	2.26 (≈ 4.89 µM)	171 to 173	> 100	3.04 (≈ 6.59 µM)	1.36 (≈ 2.94 µM)	2.3
COc1ncc(-c2ccc3nccc(-c4ccc(CN(CCO)CCO)cc4)c3c2)cc1NS(=O)(=O)c1ccc(F)cc1F [Compound 20, N-(5-(4-(4-((di(2-hydroxyethyl)amino)methyl)phenyl)quinolin-6-yl)-2-methoxypyridine-3-yl)-2,4-difluorobenzenesulfonamide]	–	–	90 to 91	0.089 (≈ 0.143 µM)	0.00237 (≈ 0.00382 µM)	0.00174 (≈ 0.0028 µM)	1.3
COc1ncc(-c2ccc3nccc(-c4ccc(Cn5cccn5)cc4)c3c2)cc1NS(=O)(=O)c1ccc(F)cc1F [Compound 21, N-(5-(4-(4-((1H-pyrazole-1-yl)methyl)phenyl)quinolin-6-yl)-2-methoxypyridine-3-yl)-2,4-difluorobenzenesulfonamide]	–	–	93 to 95	0.935 (≈ 1.6 µM)	0.031 (≈ 0.0531 µM)	0.018 (≈ 0.0308 µM)	1.1
CCN(Cc1ccc(-c2ccnc3ccc(-c4cnc(OC)c(NS(=O)(=O)c5ccc(F)cc5F)c4)cc23)cc1)C1CCCCC1 [Compound 22, N-(5-(4-(4-((cyclohexyl(ethyl)amino)methyl)phenyl)quinolin-6-yl)-2-methoxypyridine-3-yl)-2,4-difluorobenzenesulfonamide]	–	–	87 to 88	0.93 (≈ 1.45 µM)	0.143 (≈ 0.222 µM)	0.013 (≈ 0.0202 µM)	1.6
COc1ncc(-c2ccc3nccc(-c4ccc(CN(C)CCN(C)C)cc4)c3c2)cc1NS(=O)(=O)c1ccc(F)cc1F [Compound 24]	–	–	87 to 88	0.157 (≈ 0.254 µM)	0.032 (≈ 0.0518 µM)	0.00804 (≈ 0.013 µM)	2.5
COc1ncc(-c2ccc3nccc(-n4cncn4)c3c2)cc1NS(=O)(=O)c1ccc(F)cc1 [Compound 25, N-(5-(4-(1H-1,2,4-triazole-1-yl)quinolin-6-yl)-2-methoxypyridine-3-yl)-4-fluorobenzenesulfonamide]	–	9.49 (≈ 19.9 µM)	122 to 124	–	1.04 (≈ 2.18 µM)	1.02 (≈ 2.14 µM)	1.2
O=S(=O)(Nc1cc(-c2ccc3nccc(-n4cncn4)c3c2)cnc1Cl)c1ccc(F)cc1F [Compound 26, N-(5-(4-(1H-1,2,4-triazole-1-yl)quinolin-6-yl)-2-chlorinepyridin-3-yl)-2,4-difluorobenzenesulfonamide]	–	2.8 (≈ 5.61 µM)	118 to 121	–	1.23 (≈ 2.47 µM)	2.35 (≈ 4.71 µM)	0.59
O=S(=O)(Nc1cc(-c2ccc3nccc(-n4cncn4)c3c2)cnc1Cl)c1ccc(F)cc1 [Compound 27, N-(5-(4-(1H-1,2,4-triazole-1-yl)quinolin-6-yl)-2-chlorinepyridin-3-yl)-4-fluorobenzenesulfonamide]	–	9.43 (≈ 19.6 µM)	258 to 261	–	1.22 (≈ 2.54 µM)	1.16 (≈ 2.41 µM)	0.81
O=S(=O)(Nc1cc(-c2ccc3nccc(-c4ccc(CN5CCOCC5)cc4)c3c2)cnc1Cl)c1ccc(F)cc1 [Compound 28, N-(5-(4-(4-((morpholino-1-yl)methyl)phenyl)quinolin-6-yl)-2-chlorinepyridin-3-yl)-4-fluorobenzenesulfonamide]	–	4.55 (≈ 7.72 µM)	–	–	1.87 (≈ 3.17 µM)	0.47 (≈ 0.798 µM)	1.5
COc1ncc(-c2ccc3nccc(-c4ccc(CN5CCOCC5)cc4)c3c2)cc1NS(=O)(=O)c1ccc(F)cc1 [Compound 29, N-(5-(4-(4-((morpholino-1-yl)methyl)phenyl)quinolin-6-yl)-2-methoxypyridine-3-yl)-4-fluorobenzenesulfonamide]	–	15.9 (≈ 27.1 µM)	–	–	1.37 (≈ 2.34 µM)	0.15 (≈ 0.257 µM)	1.6
O=S(=O)(Nc1cc(-c2ccc3nccc(-c4ccc(CN5CCOCC5)cc4)c3c2)cnc1Cl)c1ccc(F)cc1F [Compound 30, N-(5-(4-(4-((morpholino-1-yl)methyl)phenyl)quinolin-6-yl)-2-chlorinepyridin-3-yl)-2,4-difluorobenzenesulfonamide]	–	1.4 (≈ 2.31 µM)	–	–	2.39 (≈ 3.94 µM)	0.22 (≈ 0.362 µM)	1.1
COc1ncc(-c2ccc3nccc(-c4ccc(CN(C)C)cc4)c3c2)cc1NS(=O)(=O)c1ccc(F)cc1 [Compound 31, N-(5-(4-(4-((dimethylamine)methyl)phenyl)quinolin-6-yl)-2-methoxypyridine-3-yl)-4-fluorobenzenesulfonamide]	–	1.64 (≈ 3.02 µM)	150 to 152	–	1.02 (≈ 1.88 µM)	0.2 (≈ 0.369 µM)	2.1
CN(C)Cc1ccc(-c2ccnc3ccc(-c4cnc(Cl)c(NS(=O)(=O)c5ccc(F)cc5F)c4)cc23)cc1 [Compound 32, N-(5-(4-(4-((dimethylamine)methyl)phenyl)quinolin-6-yl)-2-chlorinepyridin-3-yl)-2,4-difluorobenzenesulfonamide]	–	2.18 (≈ 3.86 µM)	160 to 164	–	1.03 (≈ 1.82 µM)	2.12 (≈ 3.75 µM)	0.69
O=S(=O)(Nc1cc(-c2ccc3nccc(-c4ccc(Cn5cncn5)cc4)c3c2)cnc1Cl)c1ccc(F)cc1 [Compound 33, N-(5-(4-(4-((1H-1,2,4-triazole-1-yl)methyl)phenyl)quinolin-6-yl)-2-chlorinepyridin-3-yl)-4-fluorobenzenesulfonamide]	–	5.47 (≈ 9.58 µM)	235 to 236	–	1.43 (≈ 2.5 µM)	1.52 (≈ 2.66 µM)	0.73
COc1ncc(-c2ccc3nccc(-c4ccc(Cn5cncn5)cc4)c3c2)cc1NS(=O)(=O)c1ccc(F)cc1 [Compound 34, N-(5-(4-(4-((1H-1,2,4-triazole-1-yl)methyl)phenyl)quinolin-6-yl)-2-methoxypyridine-3-yl)-4-fluorobenzenesulfonamide]	–	7.18 (≈ 12.7 µM)	150 to 152	–	1.15 (≈ 2.03 µM)	0.28 (≈ 0.494 µM)	0.91
O=S(=O)(Nc1cc(-c2ccc3nccc(-c4ccc(Cn5cncn5)cc4)c3c2)cnc1Cl)c1ccc(F)cc1F [Compound 35, N-(5-(4-(4-((1H-1,2,4-triazole-1-yl)methyl)phenyl)quinolin-6-yl)-2-chlorinepyridin-3-yl)-2,4-difluorobenzenesulfonamide]	–	1.2 (≈ 2.04 µM)	145 to 148	–	1.64 (≈ 2.78 µM)	5.66 (≈ 9.61 µM)	0.82
CN(CCO)Cc1ccc(-c2ccnc3ccc(-c4cnc(Cl)c(NS(=O)(=O)c5ccc(F)cc5)c4)cc23)cc1 [Compound 36, N-(5-(4-(4-(((2-hydroxyethyl)(methyl)amino)methyl)phenyl)quinolin-6-yl)-2-chlorinepyridin-3-yl)-4-fluorobenzenesulfonamide]	–	1.1 (≈ 1.91 µM)	214 to 217	–	1.06 (≈ 1.84 µM)	0.13 (≈ 0.225 µM)	1
CN(CCO)Cc1ccc(-c2ccnc3ccc(-c4cnc(Cl)c(NS(=O)(=O)c5ccc(F)cc5F)c4)cc23)cc1 [Compound 37, N-(5-(4-(4-(((2-hydroxyethyl)(methyl)amino)methyl)phenyl)quinolin-6-yl)-2-chlorinepyridin-3-yl)-2,4-difluorobenzenesulfonamide]	–	1.71 (≈ 2.87 µM)	132 to 135	–	1.89 (≈ 3.18 µM)	1.08 (≈ 1.81 µM)	0.75
COc1ncc(-c2ccc3nccc(-c4ccc(CN(C)CCO)cc4)c3c2)cc1NS(=O)(=O)c1ccc(F)cc1 [Compound 38, N-(5-(4-(4-(((2-hydroxyethyl)(methyl)amino)methyl)phenyl)quinolin-6-yl)-2-methoxypyridine-3-yl)-4-fluorobenzenesulfonamide]	–	1.06 (≈ 1.85 µM)	–	–	1.12 (≈ 1.96 µM)	0.19 (≈ 0.332 µM)	4.8

— patent US20160168118A1, “N-(5-QUINOLIN-6-YL)PYRIDIN-3-YL) BENZSULFAMIDE DERIVATIVES, PREPARATION METHOD AND THERAPEUTIC USE THEREOF” (SECOND MILITARY MEDICAL UNIVERSITY, PLA, priority 2012, published 2016)
